Reference: ChEMBL document CHEMBL1909294, “Translating clinical findings into knowledge in drug safety evaluation--drug induced liver injury prediction system (DILIps)” (PLoS Comput Biol, 2011)

Experiments:
[1] = test system: Hepatotoxicity;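 as to HepSE bilirubinemia: bilirubinemia hepatic side effect score drawn from the DILIps training data, a prediction system for drug-induced liver injury; call rule not given here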;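 as to HepSE cholecystitis: Cholecystitis-related hepatic side effect score drawn from the DILIps (drug-induced liver injury prediction) training data set; call rule not given here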;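 as to HepSE cirrhosis: cirrhosis hepatic side effect score taken from the DILIps (drug-induced liver injury prediction) training set; call rule not given here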;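 as to HepSE jaundice: Jaundice-related hepatic side-effect score drawn from the training data of the DILIps (drug-induced liver injury prediction system); call rule not given here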; as to HepSE liver disease: call rule not given here;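 as to HepSE liver fatty: hepatic side effect score for fatty liver, taken from the DILIps training set for predicting drug-induced liver injury; call rule not given here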;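 as to HepSE liver function tests abnormal: hepatic side effect score taken from the DILIps (drug-induced liver injury prediction system) training data, here covering abnormal liver function test findings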
[2] = test system: Hepatotoxicity; remark: listed apart in the source;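 as to HepSE bilirubinemia: bilirubinemia hepatic side effect score drawn from the DILIps training data, a prediction system for drug-induced liver injury; call rule not given here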;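 as to HepSE cholecystitis: Cholecystitis-related hepatic side effect score drawn from the DILIps (drug-induced liver injury prediction) training data set; call rule not given here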;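 as to HepSE cirrhosis: cirrhosis hepatic side effect score taken from the DILIps (drug-induced liver injury prediction) training set; call rule not given here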;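 as to HepSE jaundice: Jaundice-related hepatic side-effect score drawn from the training data of the DILIps (drug-induced liver injury prediction system); call rule not given here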; as to HepSE liver disease: call rule not given here;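 as to HepSE liver fatty: hepatic side effect score for fatty liver, taken from the DILIps training set for predicting drug-induced liver injury; call rule not given here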
[3] = test system: Hepatotoxicity; remark: listed apart in the source;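 as to HepSE bilirubinemia: bilirubinemia hepatic side effect score drawn from the DILIps training data, a prediction system for drug-induced liver injury; call rule not given here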;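 as to HepSE cholecystitis: Cholecystitis-related hepatic side effect score drawn from the DILIps (drug-induced liver injury prediction) training data set; call rule not given here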;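 as to HepSE cirrhosis: cirrhosis hepatic side effect score taken from the DILIps (drug-induced liver injury prediction) training set; call rule not given here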;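 as to HepSE jaundice: Jaundice-related hepatic side-effect score drawn from the training data of the DILIps (drug-induced liver injury prediction system); call rule not given here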; as to HepSE liver disease: call rule not given here;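 as to HepSE liver fatty: hepatic side effect score for fatty liver, taken from the DILIps training set for predicting drug-induced liver injury; call rule not given here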
[4] = test system: Hepatotoxicity; remark: listed apart in the source;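 as to HepSE bilirubinemia: bilirubinemia hepatic side effect score drawn from the DILIps training data, a prediction system for drug-induced liver injury; call rule not given here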;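 as to HepSE cholecystitis: Cholecystitis-related hepatic side effect score drawn from the DILIps (drug-induced liver injury prediction) training data set; call rule not given here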;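 as to HepSE cirrhosis: cirrhosis hepatic side effect score taken from the DILIps (drug-induced liver injury prediction) training set; call rule not given here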;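 as to HepSE jaundice: Jaundice-related hepatic side-effect score drawn from the training data of the DILIps (drug-induced liver injury prediction system); call rule not given here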; as to HepSE liver disease: call rule not given here;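 as to HepSE liver fatty: hepatic side effect score for fatty liver, taken from the DILIps training set for predicting drug-induced liver injury; call rule not given here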
[5] = test system: Hepatotoxicity; remark: listed apart in the source; as to HepSE liver disease: call rule not given here
[6] = test system: Hepatotoxicity; remark: listed apart in the source; as to HepSE liver disease: call rule not given here
[7] = test system: Hepatotoxicity; remark: listed apart in the source
[8] = test system: Hepatotoxicity; remark: listed apart in the source
[9] = test system: Hepatotoxicity; remark: listed apart in the source
[10] = test system: Hepatotoxicity; remark: listed apart in the source
[11] = test system: Hepatotoxicity; remark: listed apart in the source
[12] = test system: Hepatotoxicity; remark: listed apart in the source
[13] = test system: Hepatotoxicity; remark: listed apart in the source
[14] = test system: Hepatotoxicity; remark: listed apart in the source

`CCN(Cc1ccncc1)C(=O)C(CO)c1ccccc1` (stereo unspecified) [TROPICAMIDE] was tested, and the HepSE_liver disease [1] was 0, the HepSE_jaundice [2] was 0 and the HepSE_cirrhosis [3] was 0. It also gave a HepSE_liver fatty [4] of 0, a HepSE_bilirubinemia [5] of 0 and a HepSE_cholecystitis [6] of 0. For the same compound, the “HepSE_liver function tests abnormal” value ([7]; Liver) was 0, the HepSE_cholelithiasis [8] was 0 and the HepSE_hepatitis [9] was 0. For the same compound, the “HepSE_Combined Scores” value [10] was 0, the HepSE_hepatic failure [11] was 0 and the HepSE_hepatomegaly [12] was 0. The HepSE_hepatic necrosis [13] was 0 and the “HepSE_elevated liver function tests” value ([14]; Liver) was 0.
For `O=C(O[C@H]1C[C@H]2CC[C@@H](C1)[N+]21CCCC1)C(O)(c1ccccc1)c1ccccc1.[Cl-]` [TROSPIUM CHLORIDE], the HepSE_liver disease [1] was 0, the HepSE_jaundice [2] was 0 and the HepSE_cirrhosis [3] was 0. For the same compound, the HepSE_liver fatty [4] was 0, the HepSE_bilirubinemia [5] was 0 and the HepSE_cholecystitis [6] was 0. For the same compound, the “HepSE_liver function tests abnormal” value [7] was 0, the HepSE_cholelithiasis [8] was 0 and the HepSE_hepatitis [9] was 0. For the same compound, the “HepSE_Combined Scores” value [10] was 0, the HepSE_hepatic failure [11] was 0 and the HepSE_hepatomegaly [12] was 0. The HepSE_hepatic necrosis [13] was 0 and the “HepSE_elevated liver function tests” value [14] was 0.
`N[C@@H]1[C@H]2CN(c3nc4c(cc3F)c(=O)c(C(=O)O)cn4-c3ccc(F)cc3F)C[C@@H]12` [TROVAFLOXACIN] showed a HepSE_liver disease [1] of 0, a HepSE_jaundice [2] of 1 and a HepSE_cirrhosis [3] of 0. For the same compound, the HepSE_liver fatty [4] was 0, the HepSE_bilirubinemia [5] was 1 and the HepSE_cholecystitis [6] was 0. For the same compound, the “HepSE_liver function tests abnormal” value [7] was 0, the HepSE_cholelithiasis [8] was 0 and the HepSE_hepatitis [9] was 1. For the same compound, the “HepSE_Combined Scores” value [10] was 5, the HepSE_hepatic failure [11] was 1 and the HepSE_hepatomegaly [12] was 0. The HepSE_hepatic necrosis [13] was 1 and the “HepSE_elevated liver function tests” value [14] was 0.
For `N[C@@H](Cc1c[nH]c2ccccc12)C(=O)O` [TRYPTOPHAN], the HepSE_liver disease [1] was 0, the HepSE_jaundice [2] was 0 and the HepSE_cirrhosis [3] was 0. The HepSE_liver fatty [4] was 0, the HepSE_bilirubinemia [5] was 0 and the HepSE_cholecystitis [6] was 0. The “HepSE_liver function tests abnormal” value [7] was 0, the HepSE_cholelithiasis [8] was 0 and the HepSE_hepatitis [9] was 0. For the same compound, the “HepSE_Combined Scores” value [10] was 0, the HepSE_hepatic failure [11] was 0 and the HepSE_hepatomegaly [12] was 0. The HepSE_hepatic necrosis [13] was 0 and the “HepSE_elevated liver function tests” value [14] was 0.
In the case of `CCCCCCCC(=O)CC[C@@H]1[C@@H](C/C=C\CCCC(=O)O)[C@@H](O)C[C@H]1O` [UNOPROSTONE], the HepSE_liver disease [1] is reported as 0, the HepSE_jaundice [2] is reported as 0 and the HepSE_cirrhosis [3] is reported as 0. For the same compound, the HepSE_liver fatty [4] was 0, the HepSE_bilirubinemia [5] was 0 and the HepSE_cholecystitis [6] was 0. The “HepSE_liver function tests abnormal” value [7] was 0, the HepSE_cholelithiasis [8] was 0 and the HepSE_hepatitis [9] was 0. The “HepSE_Combined Scores” value [10] was 0, the HepSE_hepatic failure [11] was 0 and the HepSE_hepatomegaly [12] was 0. For the same compound, the HepSE_hepatic necrosis [13] was 0 and the “HepSE_elevated liver function tests” value [14] was 0.
Work on `C[C@H](CCC(=O)O)[C@H]1CC[C@H]2[C@@H]3[C@@H](O)C[C@@H]4C[C@H](O)CC[C@]4(C)[C@H]3CC[C@]12C` [URSODIOL] yielded a HepSE_liver disease [1] of 0, a HepSE_jaundice [2] of 0 and a HepSE_cirrhosis [3] of 0. For the same compound, the HepSE_liver fatty [4] was 0, the HepSE_bilirubinemia [5] was 0 and the HepSE_cholecystitis [6] was 1. The “HepSE_liver function tests abnormal” value [7] was 0, the HepSE_cholelithiasis [8] was 0 and the HepSE_hepatitis [9] was 0. The “HepSE_Combined Scores” value [10] was 1, the HepSE_hepatic failure [11] was 0 and the HepSE_hepatomegaly [12] was 0. The HepSE_hepatic necrosis [13] was 0 and the “HepSE_elevated liver function tests” value [14] was 0.
In the case of `CC(C)[C@H](N)C(=O)OCCOCn1cnc2c(=O)[nH]c(N)nc21` [VALACYCLOVIR], the HepSE_liver disease [1] is reported as 0, the HepSE_jaundice [2] is reported as 0 and the HepSE_cirrhosis [3] is reported as 0. For the same compound, the HepSE_liver fatty [4] was 0, the HepSE_bilirubinemia [5] was 0 and the HepSE_cholecystitis [6] was 0. For the same compound, the “HepSE_liver function tests abnormal” value [7] was 0, the HepSE_cholelithiasis [8] was 0 and the HepSE_hepatitis [9] was 1. The “HepSE_Combined Scores” value [10] was 1, the HepSE_hepatic failure [11] was 0 and the HepSE_hepatomegaly [12] was 0. For the same compound, the HepSE_hepatic necrosis [13] was 0 and the “HepSE_elevated liver function tests” value [14] was 0.
`Cc1onc(-c2ccccc2)c1-c1ccc(S(N)(=O)=O)cc1` [VALDECOXIB] was tested, and the HepSE_liver disease [1] was 0, the HepSE_jaundice [2] was 0 and the HepSE_cirrhosis [3] was 0. The HepSE_liver fatty [4] was 0, the HepSE_bilirubinemia [5] was 0 and the HepSE_cholecystitis [6] was 0. The “HepSE_liver function tests abnormal” value [7] was 0, the HepSE_cholelithiasis [8] was 1 and the HepSE_hepatitis [9] was 1. The “HepSE_Combined Scores” value [10] was 2, the HepSE_hepatic failure [11] was 0 and the HepSE_hepatomegaly [12] was 0. For the same compound, the HepSE_hepatic necrosis [13] was 0 and the “HepSE_elevated liver function tests” value [14] was 0.
Work on `CC(C)[C@H](N)C(=O)OCC(CO)OCn1cnc2c(=O)nc(N)[nH]c21` (stereo partly specified) [VALGANCICLOVIR] yielded a HepSE_liver disease [1] of 0, a HepSE_jaundice [2] of 1 and a HepSE_cirrhosis [3] of 0. For the same compound, the HepSE_liver fatty [4] was 0, the HepSE_bilirubinemia [5] was 0 and the HepSE_cholecystitis [6] was 0. For the same compound, the “HepSE_liver function tests abnormal” value [7] was 0, the HepSE_cholelithiasis [8] was 0 and the HepSE_hepatitis [9] was 1. The “HepSE_Combined Scores” value [10] was 2, the HepSE_hepatic failure [11] was 0 and the HepSE_hepatomegaly [12] was 0. For the same compound, the HepSE_hepatic necrosis [13] was 0 and the “HepSE_elevated liver function tests” value [14] was 0.
